The results in this text go back to BindingDB's records for doi:10.1016/s0006-2952(96)00656-9 (Institute of Parasitology of Mcgill University, 1997).

In this data set the target is ATP-dependent translocase ABCB1 (Homo sapiens, UniProt P08183). The data set is described as follows: TP_TRANSPORTER: binding in plasma membranes from CEM/VLB1.0 cells.
Sequence of ATP-dependent translocase ABCB1 (P08183 whole entry): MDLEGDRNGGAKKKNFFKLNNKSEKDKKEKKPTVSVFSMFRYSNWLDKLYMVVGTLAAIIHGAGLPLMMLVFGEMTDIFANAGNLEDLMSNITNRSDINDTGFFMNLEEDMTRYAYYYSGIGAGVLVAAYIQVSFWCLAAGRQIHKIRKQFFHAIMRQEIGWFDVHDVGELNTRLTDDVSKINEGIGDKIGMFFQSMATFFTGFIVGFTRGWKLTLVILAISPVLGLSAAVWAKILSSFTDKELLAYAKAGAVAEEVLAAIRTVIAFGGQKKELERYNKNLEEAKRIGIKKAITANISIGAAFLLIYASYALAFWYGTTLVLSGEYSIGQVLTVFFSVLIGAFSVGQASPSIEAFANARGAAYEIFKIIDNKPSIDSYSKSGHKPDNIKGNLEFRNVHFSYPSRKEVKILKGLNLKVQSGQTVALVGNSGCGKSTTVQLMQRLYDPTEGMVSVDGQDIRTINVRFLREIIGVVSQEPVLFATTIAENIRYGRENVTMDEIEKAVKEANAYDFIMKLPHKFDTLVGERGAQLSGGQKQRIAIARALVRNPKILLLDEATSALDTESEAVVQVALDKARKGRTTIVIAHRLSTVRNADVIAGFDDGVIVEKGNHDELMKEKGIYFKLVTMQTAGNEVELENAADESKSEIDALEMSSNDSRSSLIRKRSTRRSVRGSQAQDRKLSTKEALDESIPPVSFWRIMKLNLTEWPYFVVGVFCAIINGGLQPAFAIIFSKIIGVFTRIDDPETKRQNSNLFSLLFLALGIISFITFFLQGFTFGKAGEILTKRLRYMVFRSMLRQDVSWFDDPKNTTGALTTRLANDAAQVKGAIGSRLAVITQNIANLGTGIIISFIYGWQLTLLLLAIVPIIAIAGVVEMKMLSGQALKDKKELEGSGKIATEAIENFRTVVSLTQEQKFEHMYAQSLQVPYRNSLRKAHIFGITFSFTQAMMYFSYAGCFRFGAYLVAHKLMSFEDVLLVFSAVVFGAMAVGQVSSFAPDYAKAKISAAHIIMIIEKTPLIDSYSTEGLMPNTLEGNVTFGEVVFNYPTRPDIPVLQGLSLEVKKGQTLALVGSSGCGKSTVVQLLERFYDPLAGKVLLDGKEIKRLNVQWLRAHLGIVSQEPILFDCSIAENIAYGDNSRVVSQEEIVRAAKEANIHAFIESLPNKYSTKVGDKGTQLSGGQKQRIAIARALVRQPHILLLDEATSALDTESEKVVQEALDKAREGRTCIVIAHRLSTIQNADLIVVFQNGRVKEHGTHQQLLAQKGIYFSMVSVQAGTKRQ

Molecule `CC[C@H](C)[C@H]1O[C@]2(CC[C@@H]1C)C[C@@H]1C[C@@H](C/C=C(\C)[C@@H](O[C@H]3C[C@H](OC)[C@@H](O[C@H]4C[C@H](OC)[C@@H](O)[C@H](C)O4)[C@H](C)O3)[C@@H](C)/C=C/C=C3\CO[C@@H]4[C@H](O)C(C)=C[C@@H](C(=O)O1)[C@]34O)O2` [ABAMECTIN] returned a Kd of 11 nM. That is a double-digit nanomolar value.

The Kd is the concentration at which binding is half-saturated. Lower therefore signals tighter binding.
